From patent US6462055B2, “Alpha-methylbenzyl-containing thiourea inhibitors of herpes viruses containing a phenylenediamine group” (Wyeth, priority 1998, dated 2002)
≈ marks a conversion by molar mass, not a printed value.

Tests used:
[1] = test system: VZV strain Ellen; assay: VZV Antiviral (ELISA) Assay in human foreskin fibroblast cells; format: cell-based, varicella-zoster virus; conditions: Human alphaherpesvirus 3, Fibroblast; for inhibition at 10 µg/mL: read-out: % inhibition 10 ug/ml VZV, 10 ug/ml; for IC50: read-out: IC50 (ug/ml) VZV
Protocol: For the generation of stock VZV to be used in the assay, VZV strain Ellen (ATCC #VR-1367) is used to infect human foreskin fibroblast (HFF) cells at low multiplicity (less than 0.1) and incubated overnight at 37° C. in 5% CO2. After the overnight incubation, the mixture of uninfected and VZV-infected HFF infected cells are then harvested and added to each well of 96-well plates (3.5×10^4 cells in 100 μl DMEM supplemented with 2% FBS) which contain test compound or the reference standard drug control (in 100 μl DMEM supplemented with 2% FBS per well). These cells are incubated for three days at 37° C. in 5% CO2, then fixed for ELISA assay. The primary antibody is murine anti-VZV glycoprotein II monoclonal antibody (Applied Biosystems, Inc. #13-145-100) and the secondary antibody is goat anti-mouse IgG linked to β-galactosidase. Thus the extent of viral replication is determined by assessing β-galactosidase activity by quantifying the generation of the 4-methyl umbelliferone fluorescent cleavage product after addition of the methyl umbelliferyl-β-D-galactoside (Sigma #M1633) substrate on a microfluorimeter (365 nm for excitation and 450 nm for emission). Antiviral activity (IC50) of the test compound is determined by comparing the flourescence obtained in absence of compound to that obtained in the presence of compound.

[2] = test system: HSV-1; assay: HSV Antiviral (ELISA) Assay in Vero cells; format: cell-based, herpes simplex virus type 1; conditions: Human alphaherpesvirus 1; HSV-1, Vero cells; read-out: IC50 (ug/ml) HSV
Protocol: Vero cells (ATCC #CCL-81) are plated on 96-well tissue culture plates at 3.5×10^4 cells per 100 μl tissue culture DMEM (Dulbeccos modified Eagle media) supplemented with 2% fetal bovine serum (FBS) in each well. After overnight incubation @ 37° C. (in 5% CO2) and 30 minutes prior to infection with HSV-1 (multiplicity of infection equal to 0.006), cells are either untreated, or treated with test compound (multiple concentrations) or reference standard drug control. After approximately 24 hours post-infection incubation @ 37° C. (in 5% CO2), cells are fixed for ELISA assay. The primary antibody is murine anti-HSV glycoprotein D monoclonal primary antibody and the secondary antibody is goat anti-mouse IgG linked to β-galactosidase. Thus the extent of viral replication is determined by assessing β-galactosidase activity by quantifying the generation of the 4-methyl umbelliferone fluorescent cleavage product after addition of the methyl umbelliferyl-β-D-galactoside (Sigma #M1633) substrate on a microfluorimeter (365 nm for excitation and 450 nm for emission). Antiviral activity (IC50) of the test compound is determined by comparing the flourescence obtained in absence of compound to that obtained in the presence of compound.

Row | IC50 [2] | Structure (SMILES) | inhibition at 10 µg/mL [1] | IC50 [1]
1 | 6 µg/mL (≈ 13.6 µM) | COc1cccc(C(=O)Nc2ccc(NC(=S)Nc3ccc(OC)c(Cl)c3)cc2)c1 [Example 819, N-{4-[3-(3-Chloro-4-methoxy-phenyl)-thioureido]-phenyl}-3-methoxy-benzamide] | 93% | 2.5 µg/mL (≈ 5.66 µM)
2 | 4 µg/mL (≈ 9.05 µM) | COc1ccc(C(=O)Nc2ccc(NC(=S)Nc3ccc(OC)c(Cl)c3)cc2)cc1 [Example 820, N-{4-[3-(3-Chloro-4-methoxy-phenyl)-thioureido]-phenyl}-4-methoxy-benzamide] | 20% | > 10 µg/mL
3 | 0.2 µg/mL (≈ 0.397 µM) | COc1cc(OC)c(NC(=S)Nc2ccc(NC(=O)c3ccccc3F)cc2)cc1Br [Example 827, N-{4-[3-(5-Bromo-2,4-dimethoxy-phenyl)-thioureido]-phenyl}-2-fluoro-benzamide] | 70% | 3.5 µg/mL (≈ 6.94 µM)
4 | 0.4 µg/mL (≈ 0.897 µM) | CSc1ccc(NC(=S)Nc2ccc(NC(=O)c3ccccc3F)cc2)cc1Cl [Example 847, N-{4-[3-(3-Chloro-4-methylsulfanyl-phenyl)-thioureido]-phenyl}-2-fluoro-benzamide] | 65% | > 10 µg/mL
5 | 0.09 µg/mL (≈ 0.205 µM) | COc1cc(C)c(Cl)cc1NC(=S)Nc1ccc(NC(=O)c2ccccc2C)cc1 [Example 850, N-{4-[3-(5-Chloro-2-methoxy-4-methyl-phenyl)-thioureido]-phenyl}-2-methyl-benzamide] | 28% | 5 µg/mL (≈ 11.4 µM)
6 | 4 µg/mL (≈ 9.03 µM) | CN(C)c1ccc(NC(=S)Nc2ccc(NC(=O)c3ccccc3F)cc2)cc1Cl [Example 852, N-{4-[3-(3-Chloro-4-dimethylamino-phenyl)-thioureido]-phenyl}-2-fluoro-benzamide] | 80% | 6.5 µg/mL (≈ 14.7 µM)
7 | 2 µg/mL (≈ 3.4 µM) | CN(c1ccc(NC(=S)Nc2ccc(NC(=O)c3ccccc3F)cc2)cc1Cl)C1CCN(Cc2ccccc2)C1 (centres unmarked) [Example 857, N-[4-(3-{4-[(1-Benzyl-pyrrolidin-3-yl)-methyl-amino]-3-chloro-phenyl}-thioureido)-phenyl]-2-fluoro-benzamide] | 80% | 7 µg/mL (≈ 11.9 µM)
8 | 4 µg/mL (≈ 9.01 µM) | CC(O)c1ccc(NC(=S)Nc2ccc(NC(=O)c3ccccc3F)cc2)cc1Cl (centres unmarked) [Example 865, N-(4-{3-[3-Chloro-4-(1-hydroxy-ethyl)-phenyl]-thioureido}-phenyl)-2-fluoro-benzamide] | 52% | > 10 µg/mL
9 | 4 µg/mL (≈ 8.61 µM) | COc1c(Cl)cc(NC(=S)Nc2ccc(NC(=O)c3cccc(F)c3)cc2)cc1Cl [Example 872, N-{4-[3-(3,5-Dichloro-4-methoxy-phenyl)-thioureido]-phenyl}-3-fluoro-benzamide] | 28% | > 10 µg/mL
10 | 5 µg/mL (≈ 10.8 µM) | COc1c(Cl)cc(NC(=S)Nc2ccc(NC(=O)c3ccccc3F)cc2)cc1Cl [Example 874, N-{4-[3-(3,5-Dichloro-4-methoxy-phenyl)-thioureido]-phenyl}-2-fluoro-benzamide] | 75% | 3.5 µg/mL (≈ 7.54 µM)
11 | 6 µg/mL (≈ 12.6 µM) | COc1cccc(C(=O)Nc2ccc(NC(=S)Nc3cc(Cl)c(OC)c(Cl)c3)cc2)c1 [Example 875, N-{4-[3-(3,5-Dichloro-4-methoxy-phenyl)thioureido]-phenyl}-3-methoxy-benzamide] | 20% | > 10 µg/mL
12 | > 10 µg/mL | COc1ccc(C(=O)Nc2ccc(NC(=S)Nc3cc(Cl)c(OC)c(Cl)c3)cc2)cc1 [Example 880, N-{4-[3-(3,5-Dichloro-4-methoxy-phenyl)-thioureido]-phenyl}-4-methoxy-benzamide] | 30% | > 10 µg/mL
13 | 5 µg/mL (≈ 11.5 µM) | O=C(Nc1ccc(NC(=S)Nc2cccc(Cl)c2Cl)cc1)c1ccccc1F [Example 927, N-{4-[3-(2,3-Dichloro-phenyl)-thioureido]-phenyl}-2-fluoro-benzamide] | 1% | –
14 | 6 µg/mL (≈ 15 µM) | O=C(Nc1ccc(NC(=S)Nc2ccccc2Cl)cc1)c1ccccc1F [Example 948, N-{4-[3-(2-Chloro-phenyl)-thioureido]-phenyl}-2-fluoro-benzamide] | 4% | > 10 µg/mL
15 | > 10 µg/mL | CC(NC(=S)Nc1ccc(NC(=O)c2nccc3ccccc23)cc1)c1ccc(Br)cc1 (centres unmarked) [Example 978, Isoquinoline-1-carboxylic acid (4-{3-[1-(4-bromo-phenyl)ethyl]-thioureido}-phenyl)-amide] | – | 0.04 µg/mL (≈ 0.0791 µM)
16 | > 10 µg/mL | CC(NC(=S)Nc1ccc(NC(=O)c2nccc3ccccc23)cc1)c1ccc(C#N)cc1 (centres unmarked) [Example 979, Isoquinoline-1-carboxylic acid (4-{3-[1-(4-cyano-phenyl)-ethyl]-thioureido}-phenyl)-amide] | – | 0.13 µg/mL (≈ 0.288 µM)
17 | > 10 µg/mL | CC(NC(=S)Nc1ccc(NC(=O)c2cc3ccccc3o2)cc1)c1ccc(Br)cc1 (centres unmarked) [Example 982, Benzofuran-2-carboxylic acid (4-{3-[1-(4-bromo-phenyl)-ethyl]-thioureido}-phenyl)-amide] | – | 0.1 µg/mL (≈ 0.202 µM)
18 | > 10 µg/mL | CC(NC(=S)Nc1ccc(NC(=O)c2cc3ccccc3o2)cc1)c1ccc(C#N)cc1 (centres unmarked) [Example 983, Benzofuran-2-carboxylic acid (4-{3-[1-(4-cyano-phenyl)-ethyl]-thioureido}-phenyl)-amide] | – | 0.6 µg/mL (≈ 1.36 µM)
19 | > 10 µg/mL | CC(NC(=S)Nc1ccc(NC(=O)c2cc3ccccc3cn2)cc1)c1ccc(C#N)cc1 (centres unmarked) [Example 986, Isoquinoline-3-carboxylic acid (4-{3-[1-(4-cyano-phenyl)-ethyl]-thioureido}-phenyl)-amide] | – | 0.05 µg/mL (≈ 0.111 µM)
20 | 3 µg/mL (≈ 5.94 µM) | CC(NC(=S)Nc1ccc(NC(=O)c2cc3ccccc3cn2)cc1)c1ccc(Br)cc1 (centres unmarked) [Example 987, Isoquinoline-3-carboxylic acid (4-{3-[1-(4-bromo-phenyl)-ethyl]-thioureido}-phenyl)-amide] | – | 0.046 µg/mL (≈ 0.091 µM)
21 | > 10 µg/mL | CC(NC(=S)Nc1ccc(NC(=O)c2cccc3cccnc23)cc1)c1ccc(F)cc1 (centres unmarked) [Example 991, Quinoline-8-carboxylic acid (4-{3-[1-(4-fluoro-phenyl)-ethyl]-thioureido}-phenyl)-amide] | – | 0.1 µg/mL (≈ 0.225 µM)
22 | > 10 µg/mL | COc1ccc(C(C)NC(=S)Nc2ccc(NC(=O)c3ccccc3F)cc2)cc1Cl (centres unmarked) [Example 1000, N-(4-{3-[1-(3-Chloro-4-methoxy-phenyl)-ethyl]-thioureido}-phenyl)-2-fluoro-benzamide] | – | 6 µg/mL (≈ 13.1 µM)
23 | > 10 µg/mL | C[C@H](NC(=S)Nc1ccc(NC(=O)c2ccccc2F)cc1)c1ccc(Br)cc1 [Example 1004, (S)-N-(4-{3-[1-(4-Bromo-phenyl)-ethyl]-thioureido}-phenyl)-2-fluoro-benzamide] | – | 0.06 µg/mL (≈ 0.127 µM)
24 | > 10 µg/mL | CC(NC(=S)Nc1ccc(NC(=O)c2ccccc2F)cc1)c1ccc(S(=O)(=O)N(C)C)cc1 (centres unmarked) [Example 1008, N-(4-{3-[1-(4-Dimethylsulfamoyl-phenyl)-ethyl]-thioureido}-phenyl)-2-fluoro-benzamide] | – | > 10 µg/mL
25 | > 10 µg/mL | Cc1ccc([C@H](C)NC(=S)Nc2ccc(NC(=O)c3ccccc3F)cc2)cc1 [Example 1011, 2-Fluoro-N-{4-[3-((1S)-1-p-tolyl-ethyl)-thioureido]-phenyl}-benzamide] | – | 0.55 µg/mL (≈ 1.35 µM)
26 | > 10 µg/mL | Cc1ccc([C@@H](C)NC(=S)Nc2ccc(NC(=O)c3ccccc3F)cc2)cc1 [Example 1012, 2-Fluoro-N-{4-[3-((1R)-1-p-tolyl-ethyl)-thioureido]-phenyl}-benzamide] | – | > 7.5 µg/mL
27 | > 10 µg/mL | C[C@H](NC(=S)Nc1ccc(NC(=O)c2ccccc2F)cc1)c1ccccc1 [Example 1013, 2-Fluoro-N-{4-[3-((1S)-1-phenyl-ethyl)-thioureido]-phenyl}-benzamide] | – | 0.27 µg/mL (≈ 0.686 µM)

Row | Structure (SMILES) | IC50 [2] | inhibition at 10 µg/mL [1] | IC50 [1]
28 | CC(NC(=S)Nc1ccc(NC(=O)c2cc3ccccc3cn2)cc1)c1ccc(F)cc1 (centres unmarked) [Example 984, Isoquinoline-3-carboxylic acid (4-{3-[1-(4-fluoro-phenyl)ethyl]-thioureido}-phenyl)-amide] | 7.2 µg/mL (≈ 16.2 µM) | – | 0.08 µg/mL (≈ 0.18 µM)
29 | C[C@@H](NC(=S)Nc1ccc(NC(=O)c2ccccc2F)cc1)c1ccc(Br)cc1 [Example 1005, N-(4-{3-[(1R)-1-(4-Bromo-phenyl)-ethyl]-thioureido}-phenyl)-2-fluoro-benzamide] | 2.9 µg/mL (≈ 6.14 µM) | – | 4.3 µg/mL (≈ 9.1 µM)
